{"source": "ChEMBL document CHEMBL1201862", "about": "“PubChem BioAssay data set” (2004)", "assay_in_all_cases": "NCI tumour cell line growth inhibition, 48 h", "key": {"[1]": {"test_system": "NCI-H522"}, "[2]": {"test_system": "KM12"}, "[3]": {"test_system": "HT-29"}, "[4]": {"test_system": "SF-268"}, "[5]": {"test_system": "SF-539"}, "[6]": {"test_system": "SF-295"}, "[7]": {"test_system": "HL-60"}, "[8]": {"test_system": "SNB-19"}, "[9]": {"test_system": "NCI-H460"}, "[10]": {"test_system": "Malme-3M"}, "[11]": {"test_system": "SN12C"}, "[12]": {"test_system": "ACHN"}, "[13]": {"test_system": "MCF7"}, "[14]": {"test_system": "Hs-578T"}, "[15]": {"test_system": "MOLT-4"}, "[16]": {"test_system": "UACC-257"}, "[17]": {"test_system": "CCRF-CEM"}, "[18]": {"test_system": "U-251"}, "[19]": {"test_system": "MDA-MB-231"}, "[20]": {"test_system": "SR"}, "[21]": {"test_system": "HCC 2998"}, "[22]": {"test_system": "HCT-15"}, "[23]": {"test_system": "NCI/ADR-RES"}, "[24]": {"test_system": "DU-145"}, "[25]": {"test_system": "EKVX"}, "[26]": {"test_system": "TK-10"}, "[27]": {"test_system": "RPMI-8226"}, "[28]": {"test_system": "SW-620"}, "[29]": {"test_system": "OVCAR-3"}, "[30]": {"test_system": "BT-549"}, "[31]": {"test_system": "MDA-N"}, "[32]": {"test_system": "IGROV-1"}, "[33]": {"test_system": "MDA-MB-435"}, "[34]": {"test_system": "CAKI-1"}, "[35]": {"test_system": "NCI-H226"}, "[36]": {"test_system": "786-0"}, "[37]": {"test_system": "T47D"}, "[38]": {"test_system": "OVCAR-8"}, "[39]": {"test_system": "OVCAR-4"}, "[40]": {"test_system": "A549"}, "[41]": {"test_system": "HOP-92"}, "[42]": {"test_system": "SK-MEL-5"}, "[43]": {"test_system": "HOP-62"}, "[44]": {"test_system": "OVCAR-5"}, "[45]": {"test_system": "UACC-62"}, "[46]": {"test_system": "A498"}, "[47]": {"test_system": "COLO 205"}, "[48]": {"test_system": "NCI-H23"}, "[49]": {"test_system": "SK-MEL-28"}, "[50]": {"test_system": "HCT-116"}, "[51]": {"test_system": "UO-31"}, "[52]": {"test_system": "SK-MEL-2"}, "[53]": {"test_system": "PC-3"}, "[54]": {"test_system": "RXF 393"}, "[55]": {"test_system": "M14"}, "[56]": {"test_system": "LOX IMVI"}, "[57]": {"test_system": "SNB-75"}, "[58]": {"test_system": "SK-OV-3"}, "[59]": {"test_system": "K562"}}, "note": "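Exposure lasted 48 hours, with cells grown in 96-well plates and compounds tested at five concentrations. The concentration for 50% growth inhibition is given as GI50.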 The source made the active and inactive calls. Rule as the data show it: active = GI50 up to about 1.1 µM and inactive = higher."}
{"smiles": "NC(CSS(=O)(=O)c1ccccc1)C(=O)O", "note": "(centres undefined)", "values": [{"measurement": "GI50", "setting": "[1]", "value": "> 10 µM (inactive)"}, {"measurement": "GI50", "setting": "[2]", "value": "> 10 µM (inactive)"}, {"measurement": "GI50", "setting": "[3]", "value": "> 10 µM (inactive)"}, {"measurement": "GI50", "setting": "[4]", "value": "> 10 µM (inactive)"}, {"measurement": "GI50", "setting": "[5]", "value": "> 10 µM (inactive)"}, {"measurement": "GI50", "setting": "[6]", "value": "> 10 µM (inactive)"}, {"measurement": "GI50", "setting": "[7]", "value": "> 10 µM (inactive)"}, {"measurement": "GI50", "setting": "[8]", "value": "> 10 µM (inactive)"}, {"measurement": "GI50", "setting": "[9]", "value": "> 10 µM (inactive)"}, {"measurement": "GI50", "setting": "[10]", "value": "> 10 µM (inactive)"}, {"measurement": "GI50", "setting": "[11]", "value": "> 10 µM (inactive)"}, {"measurement": "GI50", "setting": "[12]", "value": "> 10 µM (inactive)"}, {"measurement": "GI50", "setting": "[13]", "value": "> 10 µM (inactive)"}, {"measurement": "GI50", "setting": "[14]", "value": "> 10 µM (inactive)"}, {"measurement": "GI50", "setting": "[15]", "value": "> 10 µM (inactive)"}, {"measurement": "GI50", "setting": "[16]", "value": "> 10 µM (inactive)"}, {"measurement": "GI50", "setting": "[17]", "value": "> 10 µM (inactive)"}, {"measurement": "GI50", "setting": "[18]", "value": "> 10 µM (inactive)"}, {"measurement": "GI50", "setting": "[19]", "value": "> 10 µM (inactive)"}, {"measurement": "GI50", "setting": "[20]", "value": "> 10 µM (inactive)"}, {"measurement": "GI50", "setting": "[21]", "value": "> 10 µM (inactive)"}, {"measurement": "GI50", "setting": "[22]", "value": "> 10", "unit": "µM"}, {"measurement": "GI50", "setting": "[23]", "value": "> 10 µM (inactive)"}, {"measurement": "GI50", "setting": "[24]", "value": "> 10 µM (inactive)"}, {"measurement": "GI50", "setting": "[25]", "value": "> 10 µM (inactive)"}, {"measurement": "GI50", "setting": "[26]", "value": "> 10 µM (inactive)"}, {"measurement": "GI50", "setting": "[27]", "value": "> 10 µM (inactive)"}, {"measurement": "GI50", "setting": "[28]", "value": "> 10 µM (inactive)"}, {"measurement": "GI50", "setting": "[29]", "value": "> 10 µM (inactive)"}, {"measurement": "GI50", "setting": "[30]", "value": "> 10 µM (inactive)"}, {"measurement": "GI50", "setting": "[31]", "value": "> 10 µM (inactive)"}, {"measurement": "GI50", "setting": "[32]", "value": "> 10 µM (inactive)"}, {"measurement": "GI50", "setting": "[33]", "value": "> 10 µM (inactive)"}, {"measurement": "GI50", "setting": "[34]", "value": "> 10 µM (inactive)"}, {"measurement": "GI50", "setting": "[35]", "value": "> 10 µM (inactive)"}, {"measurement": "GI50", "setting": "[36]", "value": "> 10 µM (inactive)"}, {"measurement": "GI50", "setting": "[37]", "value": "> 10 µM (inactive)"}, {"measurement": "GI50", "setting": "[38]", "value": "> 10 µM (inactive)"}, {"measurement": "GI50", "setting": "[39]", "value": "> 10 µM (inactive)"}, {"measurement": "GI50", "setting": "[40]", "value": "> 10 µM (inactive)"}, {"measurement": "GI50", "setting": "[41]", "value": "> 10 µM (inactive)"}, {"measurement": "GI50", "setting": "[42]", "value": "> 10 µM (inactive)"}, {"measurement": "GI50", "setting": "[43]", "value": "> 10 µM (inactive)"}, {"measurement": "GI50", "setting": "[44]", "value": "> 10 µM (inactive)"}, {"measurement": "GI50", "setting": "[45]", "value": "> 10 µM (inactive)"}, {"measurement": "GI50", "setting": "[46]", "value": "> 10 µM (inactive)"}, {"measurement": "GI50", "setting": "[47]", "value": "> 10 µM (inactive)"}, {"measurement": "GI50", "setting": "[48]", "value": "> 10 µM (inactive)"}, {"measurement": "GI50", "setting": "[49]", "value": "> 10 µM (inactive)"}, {"measurement": "GI50", "setting": "[50]", "value": "> 10 µM (inactive)"}, {"measurement": "GI50", "setting": "[51]", "value": "> 10 µM (inactive)"}, {"measurement": "GI50", "setting": "[52]", "value": "> 10 µM (inactive)"}, {"measurement": "GI50", "setting": "[53]", "value": "> 10 µM (inactive)"}, {"measurement": "GI50", "setting": "[54]", "value": "> 10 µM (inactive)"}, {"measurement": "GI50", "setting": "[55]", "value": "> 10 µM (inactive)"}, {"measurement": "GI50", "setting": "[56]", "value": "> 10 µM (inactive)"}, {"measurement": "GI50", "setting": "[57]", "value": "> 10 µM (inactive)"}, {"measurement": "GI50", "setting": "[58]", "value": "> 10 µM (inactive)"}, {"measurement": "GI50", "setting": "[59]", "value": "> 10 µM (inactive)"}]}
